Among the data in patent publication US9783488B2 (CHDI Foundation, Inc., priority 2013, dated 2017) are IC50 values, retold here.

Assay [1] concerns cellular histone deacetylase enzymatic activity in Jurkat E6-1 cells. In words: Inhibition of cellular HDAC activity in Jurkat E6-1 cells, fluorogenic substrate Boc-Lys(Tfa)-AMC. The class given is cell-based. As to conditions: Homo sapiens, read-out: Cell IC50. The source says:
Analysis of Inhibition of Cellular HDAC Activity with Class IIa Histone Deacetylase (HDAC) Inhibitors
The potency of Class IIa Histone Deacetylase (HDAC) inhibitors is quantified by measuring the cellular histone deacetylase enzymatic activity using the fluorogenic substrate, Boc-Lys(Tfa)-AMC. After penetration in Jurkat E6-1 cells, the substrate is deacetylated to Boc-Lys-AMC. After cell lysis and cleavage by trypsin, the fluorophore AMC is released from the deacetylated substrate only. The fluorescence of the sample is directly related to the histone deacetylase activity in the sample.
Jurkat E6.1 cell culture and plating. Jurkat E6.1 cells are cultured according to standard cell culture protocols in Jurkat E6.1 Growth Media (RPMI without phenol red, 10% FBS, 1 mM HEPES, and 1 mM Sodium Pyruvate). Jurkat E6.1 cells are counted using a Coulter Counter and resuspended in Jurkat E6.1 growth media at a concentration of 75,000 cells/35 μl. 35 μl or 75,000 cells is seeded into Greiner microtitre assay plates. The plates are then incubated at 37° C. and 5% CO2 while other assay components are being prepared.
Serially dilute HDAC inhibitor compounds. Serial dilutions of the HDAC inhibitors and control reference compound (1-(5-(3-((4-(1,3,4-oxadiazol-2-yl)phenoxy)methyl)-1,2,4-oxadiazol-5-yl)thiophen-2-yl)-2,2,2-trifluoroethanone) are made by first resuspending the lyophilized compound to a final concentration of 10 mM in […]. Stocks of 70 μl aliquots of the 10 mM compound in DMSO are prepared and stored at −20° C. From one stock aliquot of each compound to be tested and the reference compound, a 16-point serial dilution is prepared according to Table 1 using a 125 μl 16-channel Matrix multi-channel pipette.
2 μl (200×) of each diluted solution and each control (full activity: 100% DMSO alone or full inhibition 1 mM) is stamped into V-bottom polypropylene 384-well compound plates using either the Bravo, Janus, or 12.5 μl 16-channel Matrix multi-channel pipette. Each well with the 200× compound solution is diluted 1:20 by the addition of 38 μl Jurkat assay buffer+DMSO (9.5% DMSO, RPMI without phenol red, 0.09% FBS, 9 mM Hepes, and 0.9 mM Sodium Pyruvate equilibrated to r.t.)
Prepare 5× (500 μM) Boc-Lys(Tfa)-AMC substrate. 5× (500 μM) substrate is prepared just prior to the addition to the assay. The 5× substrate is prepared by diluting a 100 mM Boc-Lys(Tfa)-AMC in DMSO solution 1:200 by adding it drop-wise to Jurkat assay medium (RPMI without phenol red, 0.1% FBS, 10 mM Hepes, and 1 mM Sodium Pyruvate equilibrated to 37° C.) while vortexing at slow speed to prevent precipitation.
Prepare 3× Lysis Buffer. 10 mL of 3× lysis buffer is prepared with 8.8 mL of 3× stock lysis buffer (50 mM Tris-HCl, pH 8.0, 137 mM NaCl, 2.7 mM KCl, 1 mM MgCl2, 1% Nonidet P40 Substitute equilibrated to r.t.) and 1.2 mL of 3 mg/mL Trypsin equilibrated to r.t.
Assay. 5 μl of each solution of 1:20 diluted compound from above is transferred to the Greiner microtitre assay plates with 75,000 cells/well using the Bravo. Cells are then incubated for 2 hours at 37° C. and 5% CO2. The assay is then started by adding 10 μl of 5× (500 μM) substrate to the assay plate using either the Bravo or 16-channel Matrix multi-channel pipette. The cells are then incubated for 3 hours at 37° C. and 5% CO2. Next, 25 μl of 3× lysis buffer is added to each well using either the 125 μl 16 channel pipette or the Bravo. The assay plate is then incubated overnight (15-16 hours) at 37° C. and 5% CO2. The following day, the plates are shaken on an orbital shaker for 1 minute at 900 rpm. Finally the top read fluorescence (Excitation: 355 nm, Emission: 460 nm) is measured using PerkinElmer EnVision.

For assay [2], the target named is human catalytic domain HDAC4 protein (amino acids 648-1032) (Homo sapiens (Human), UniProt P56524). Description: Inhibition of HDAC4 catalytic domain enzymatic activity, fluorogenic substrate Boc-Lys(Tfa)-AMC. As to conditions: HDAC4 catalytic domain enzyme, read-out: Biochemical HDAC4 IC50. The source says:
Analysis of Inhibition of HDAC4 with Class IIa Histone Deacetylase (HDAC) Inhibitors
The potency of Class IIa Histone Deacetylase (HDAC) inhibitors is quantified by measuring the Histone Deacetylase 4 (HDAC4) catalytic domain enzymatic activity using the fluorogenic substrate, Boc-Lys(Tfa)-AMC. The substrate is deacetylated to Boc-Lys-AMC by HDAC4. Cleavage by trypsin results in the release of the fluorophore AMC from the deacetylated substrate. The fluorescence of the sample is directly related to the histone deacetylase activity in the sample.
Serially dilute HDAC inhibitor compounds. […] Stocks of 6 μl aliquots of the 10 mM compound in DMSO are prepared and stored at […]. From one stock aliquot of each compound to be tested and the reference compound, a 16-point serial dilution is prepared according to Table 1 using a 125 μl 16-channel Matrix multi-channel pipette (Matrix Technologies Ltd).
2 μl (200×) of each diluted solution and each control (full activity: 100% DMSO alone or full inhibition 1 mM) is stamped into V-bottomed polypropylene 384-well compound plates using either the Bravo (384-well head from Agilent) or 12.5 μl 16-channel Matrix multi-channel pipette (Matrix Technologies Ltd).
Prepare HDAC4 catalytic domain enzyme (0.2 μg/mL).
Prepare 5× ([…]) Boc-Lys(Tfa)-AMC Substrate. 5× (50 μM) substrate is prepared just prior to the addition to the assay. A 1 mM substrate stock is made by diluting a 100 mM Boc-Lys(Tfa)-AMC in DMSO solution 1:100 by adding it drop-wise to assay buffer (equilibrated to r.t.) while vortexing at slow speed to prevent precipitation. The 5× substrate is prepared by diluting the 1 mM substrate solution 1:20 by adding it drop-wise to assay buffer (equilibrated to r.t.) while vortexing at slow speed to prevent precipitation.
Prepare 3× (30 μM) Developer/Stop Solution.
Assay. 5 μl of each solution of 1:20 diluted compound from above is transferred to a clear bottomed, black, 384-well assay plate using the Bravo or the Janus (384-well MDT head from Perkin Elmer). Using a 16-channel Matrix multi-channel pipette, 35 μl of the working solution of HDAC4 catalytic domain enzyme (0.2 μg/mL in assay buffer) is transferred to the assay plate. […] The assay plate is then shaken for two minutes on an orbital shaker at 900 rpm (rotations per minute). Next the plate is incubated for 15 minutes at 37° C. The reaction is stopped by adding 25 μl of 3× (3 μM) developer/stop solution to the assay plates using either the Bravo, Janus or a 16-channel Matrix multi-channel pipette. Assay plates are then shaken for 5 minutes on an orbital shaker at 1200 rpm. Next, the assay plates are incubated at 37° C. for 1 hour in a tissue culture incubator.

Sequence of human catalytic domain HDAC4 protein (amino acids 648-1032) (P56524 648-1032): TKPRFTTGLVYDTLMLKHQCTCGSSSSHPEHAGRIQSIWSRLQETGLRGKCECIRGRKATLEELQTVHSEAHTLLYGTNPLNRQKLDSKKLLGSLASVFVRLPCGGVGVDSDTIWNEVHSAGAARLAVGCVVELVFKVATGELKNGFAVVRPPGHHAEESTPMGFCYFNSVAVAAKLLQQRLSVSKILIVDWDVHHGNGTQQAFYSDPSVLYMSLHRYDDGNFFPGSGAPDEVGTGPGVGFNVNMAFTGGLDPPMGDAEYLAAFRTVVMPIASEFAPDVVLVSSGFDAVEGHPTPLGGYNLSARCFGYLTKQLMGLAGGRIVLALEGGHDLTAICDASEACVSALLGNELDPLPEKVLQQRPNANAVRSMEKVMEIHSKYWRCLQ

Consider `Cc1c(F)cccc1[C@]1(C(=O)NO)CC[C@H](c2cncnc2)C1` (relative stereo) [Example 3, (±)-(1S*,3S*)-1-(3-fluoro-2-methylphenyl)-N-hydroxy-3-(pyrimidin-5-yl)cyclopentanecarboxamide], for which the results for the half-maximal inhibitory concentration (IC50) in assay [1] and in assay [2] were 1600 nM and 390 nM, respectively.

With `Cc1c(F)cccc1[C@]1(C(=O)NO)CC[C@H](c2ccc(F)cn2)C1` (relative stereo) [Example 11, (1S,3S*)-1-(3-fluoro-2-methylphenyl)-3-(5-fluoropyridin-2-yl)-N-hydroxycyclopentane carboxamide], the results for the IC50 in assay [1] and in assay [2] were 1830 nM and 200 nM, respectively.

Regarding `Cc1c(F)cccc1[C@]1(C(=O)NO)CC[C@@H](c2ccc(F)cn2)C1` (relative stereo) [Example 12, (1S,3R*)-1-(3-fluoro-2-methylphenyl)-3-(5-fluoropyridin-2-yl)-N-hydroxycyclopentane carboxamide], the IC50 in assay [1] turned out to be 2370 nM; in assay [2], 240 nM.

For the molecule `COc1ncc([C@H]2CC[C@@](C(=O)NO)(c3cccc(F)c3C)C2)cc1F` (relative stereo) [Example 44, (1S,3S*)-1-(3-fluoro-2-methylphenyl)-3-(5-fluoro-6-methoxypyridin-3-yl)-N-hydroxycyclopentanecarboxamide], the IC50 in assay [1] was 1700 nM; in assay [2] it was 330 nM.

As to `COc1ncc([C@@H]2CC[C@@](C(=O)NO)(c3cccc(F)c3C)C2)cc1F` (relative stereo) [Example 45, (1S,3R*)-1-(3-fluoro-2-methylphenyl)-3-(5-fluoro-6-methoxypyridin-3-yl)-N-hydroxycyclopentanecarboxamide], the IC50 in assay [1] came to 420 nM; in assay [2], 190 nM.

`Cc1c(F)cccc1[C@]1(C(=O)NO)CC[C@@H](c2cnn(C(F)F)c2)C1` (relative stereo) [Example 46, (1S,3R*)-3-(1-(Difluoromethyl)-1H-pyrazol-4-yl)-1-(3-fluoro-2-methylphenyl)-N-hydroxy cyclopentane carboxamide]: the half-inhibitory concentration (IC50) in assay [1] came out at 540 nM; in assay [2] it was 95 nM.

With `Cc1c(F)cccc1[C@]1(C(=O)NO)CC[C@@H](c2cnc(OCCN3CCCC3)c(F)c2)C1` (relative stereo) [Example 48, (1 S,3R*)-1-(3-Fluoro-2-methylphenyl)-3-(5-fluoro-6-(2-(pyrrolidin-1-yl)ethoxy)pyridin-3-yl)-N-hydroxycyclopentanecarboxamide], the results for the IC50 in assay [1] and in assay [2] were 750 nM and 320 nM, respectively.

As to `Cc1c(F)cccc1[C@]1(C(=O)NO)CC[C@@H](c2ccnn2C)C1` (relative stereo) [Example 49, (1S,3R*)-1-(3-Fluoro-2-methylphenyl)-N-hydroxy-3-(1-methyl-1H-pyrazol-5-yl)cyclopentane carboxamide], the values for the IC50 in assay [1] and in assay [2] were 400 nM and 170 nM, respectively.

As for `Cc1c(F)cccc1[C@]1(C(=O)NO)CC[C@H](c2ccnn2C)C1` (relative stereo) [Example 50, (1S,3S*)-1-(3-Fluoro-2-methylphenyl)-N-hydroxy-3-(1-methyl-1H-pyrazol-5-yl)cyclopentanecarboxamide], the IC50 was 1800 nM in assay [1] and 250 nM in assay [2].

In the case of `Cc1c(F)cccc1[C@]1(C(=O)NO)CC[C@@H](c2ccc3cnn(C(F)F)c3c2)C1` (relative stereo) [Example 54, (1S,3R*)-3-(1-(difluoromethyl)-1H-indazol-6-yl)-1-(3-fluoro-2-methylphenyl)-N-hydroxycyclopentanecarboxamide], the half-maximal inhibitory concentration (IC50) stood at 110 nM in assay [1] and 72 nM in assay [2].

For `Cc1c(F)cccc1[C@]1(C(=O)NO)CC[C@H](c2ccc3cnn(C(F)F)c3c2)C1` (relative stereo) [Example 55, (1S,3S*)-3-(1-(difluoromethyl)-1H-indazol-6-yl)-1-(3-fluoro-2-methylphenyl)-N-hydroxycyclopentanecarboxamide], the concentration for half-maximal inhibition (IC50) worked out at 160 nM in assay [1] and 46 nM in assay [2].

`Cc1c(F)cccc1[C@]1(C(=O)NO)CC[C@@H](c2ccc3cnn(C)c3c2)C1` (relative stereo) [Example 56, (1S,3R*)-1-(3-fluoro-2-methylphenyl)-N-hydroxy-3-(1-methyl-1H-indazol-6-yl)cyclopentanecarboxamide]: the 50% inhibitory concentration (IC50) was 230 nM in assay [1] and 140 nM in assay [2].

As to `Cc1c(F)cccc1[C@]1(C(=O)NO)CC[C@@H](c2ccn3ccnc3c2)C1` (relative stereo) [Example 57, (1S,3R*)-1-(3-fluoro-2-methylphenyl)-N-hydroxy-3-(imidazo[1,2-a]pyridin-7-yl)cyclopentanecarboxamide], the concentration for half-maximal inhibition (IC50) in assay [1] came out at 180 nM; in assay [2], 98 nM.

Turning to `Cc1c(F)cccc1[C@]1(C(=O)NO)CC[C@H](c2ccn3ccnc3c2)C1` (relative stereo) [Example 58, (1S,3S*)-1-(3-fluoro-2-methylphenyl)-N-hydroxy-3-(imidazo[1,2-a]pyridin-7-yl)cyclopentanecarboxamide], the values for the IC50 in assay [1] and in assay [2] were 300 nM and 82 nM, respectively.

For the molecule `Cc1c(F)cccc1[C@]1(C(=O)NO)CC[C@@H](c2cccc3cnn(C)c23)C1` (relative stereo) [Example 60, (1S,3R*)-1-(3-fluoro-2-methylphenyl)-N-hydroxy-3-(1-methyl-1H-indazol-7-yl)cyclopentanecarboxamide], the values for the IC50 in assay [1] and in assay [2] were 810 nM and 360 nM, respectively.

Usually IC50 stands for the concentration that gives 50% inhibition.
